Marks after values point to notes of the source that are not given here.
Columns and labels:
[1] = pharmacokinetics, plasma concentrations by LC-MS/MS; settings: for half-life / AUC / Cmax / Tmax: human, plasma, intravenous; for AUC / Cmax: mean
[2] = system: patients with solid tumours; settings: weekly study; ref Nemunaitis et al, 2013; cited from earlier work
[3] = 2-h infusion, 29.6 mg m^−2, n=5
[4] = 2-h infusion, 41.4 mg m^−2, n=6

SMILES: CCc1cnn2c(NCc3ccc[n+]([O-])c3)cc(N3CCCC[C@H]3CCO)nc12 [dinaciclib, Dinaciclib]
- CL, mean ([1]; 2-h infusion, 1.85 mg m^−2, n=1): 13.6 L h^−1 m^−2
- CL, mean ([1]; 2-h infusion, 3.7 mg m^−2, n=1): 11.0 L h^−1 m^−2
- t1/2, mean ([1]; 2-h infusion, 3.7 mg m^−2, n=1): 2.84 h
- CL, mean ([1]; 2-h infusion, 7.4 mg m^−2, n=1): 7.61 L h^−1 m^−2
- CL, mean ([1]; 2-h infusion, 14.8 mg m^−2, n=1): 13.8 L h^−1 m^−2
- CL, mean [1, 3]: 13.6 ^c L h^−1 m^−2
- t1/2, mean [1, 3]: 2.84 ^c h
- CL, mean [1, 4]: 26.8 L h^−1 m^−2
- t1/2, mean [1, 4]: 2.86 h
- CL, mean ([1]; 2-h infusion, 50 mg m^−2, n=15): 16.1 L h^−1 m^−2
- CL, mean ([1]; 2-h infusion, 58 mg m^−2, n=4): 18.9 L h^−1 m^−2
- Cmax, mean ([1]; 8-h infusion, 7.4 mg m^−2, n=6): 95.5 ng/mL
- Cmax, mean ([1]; 8-h infusion, 14.8 mg m^−2, n=3): 95.8 ng/mL
- Cmax, mean ([1]; 8-h infusion, 41.4 mg m^−2, n=2): 429 ng/mL
- dose dependence of CL ([1]; based on the PK findings): dose-independent
- half-life [1]: 84 to 198 min
- AUC ([1]; 1.85 mg m^−2, AUC(l), 2-h infusion, 1.85 mg m^−2, n=1): 136 ng·h/mL
- AUC ([1]; 1.85 mg m^−2, AUC(tf), 2-h infusion, 1.85 mg m^−2, n=1): 135 ng·h/mL
- Cmax ([1]; 1.85 mg m^−2, Cmax, 2-h infusion, 1.85 mg m^−2, n=1): 62.5 ng/mL
- AUC ([1]; 7.4 mg m^−2, AUC(l), 2-h infusion, 7.4 mg m^−2, n=1): 975 ng·h/mL
- AUC ([1]; 7.4 mg m^−2, AUC(tf), 2-h infusion, 7.4 mg m^−2, n=1): 974 ng·h/mL
- AUC ([1]; 7.4 mg m^−2, AUC(tf), 8-h infusion, 7.4 mg m^−2, n=6): 687 ng·h/mL
- AUC ([1]; 7.4 mg m^−2, AUC(tf), 24-h infusion, 7.4 mg m^−2, n=4): 877 ng·h/mL
- Cmax ([1]; 7.4 mg m^−2, Cmax, 2-h infusion, 7.4 mg m^−2, n=1): 353 ng/mL
- Cmax ([1]; 7.4 mg m^−2, Cmax, 24-h infusion, 7.4 mg m^−2, n=4): 41.4 ng/mL
- Tmax ([1]; 7.4 mg m^−2, Tmax, median, 8-h infusion, 7.4 mg m^−2, n=4): 4 h
- Tmax ([1]; 7.4 mg m^−2, Tmax, median, 24-h infusion, 7.4 mg m^−2, n=1): 24 h
- AUC ([1]; 10.4 mg m^−2, AUC(tf), 24-h infusion, 10.4 mg m^−2, n=3): 982 ng·h/mL
- Cmax ([1]; 10.4 mg m^−2, Cmax, 24-h infusion, 10.4 mg m^−2, n=3): 51.4 ng/mL
- Tmax ([1]; 10.4 mg m^−2, Tmax, median, 24-h infusion, 10.4 mg m^−2, n=2): 15 h
- AUC ([1]; 14.6 mg m^−2, AUC(tf), 24-h infusion, 14.6 mg m^−2, n=3): 2590 ng·h/mL
- Cmax ([1]; 14.6 mg m^−2, Cmax, 24-h infusion, 14.6 mg m^−2, n=3): 161 ng/mL
- Tmax ([1]; 14.6 mg m^−2, Tmax, median, 24-h infusion, 14.6 mg m^−2, n=2): 15 h
- half-life ([1]; 14.8 mg m^−2): 167 min
- AUC ([1]; 14.8 mg m^−2, AUC(l), 2-h infusion, 14.8 mg m^−2, n=1): 1060 ng·h/mL
- AUC ([1]; 14.8 mg m^−2, AUC(tf), 2-h infusion, 14.8 mg m^−2, n=1): 1060 ng·h/mL
- AUC ([1]; 14.8 mg m^−2, AUC(tf), 8-h infusion, 14.8 mg m^−2, n=3): 702 ng·h/mL
- Cmax ([1]; 14.8 mg m^−2, Cmax, 2-h infusion, 14.8 mg m^−2, n=1): 396 ng/mL
- Tmax ([1]; 14.8 mg m^−2, Tmax, median, 8-h infusion, 14.8 mg m^−2, n=3): 4 h
- AUC ([1]; 29.6 mg m^−2, AUC(l), 2-h infusion, 29.6 mg m^−2, n=5): 2440 ng·h/mL
- AUC ([1]; 29.6 mg m^−2, AUC(tf), 2-h infusion, 29.6 mg m^−2, n=5): 2060 ng·h/mL
- AUC ([1]; 29.6 mg m^−2, AUC(tf), 8-h infusion, 29.6 mg m^−2, n=3): 2300 ng·h/mL
- Cmax ([1]; 29.6 mg m^−2, Cmax, 2-h infusion, 29.6 mg m^−2, n=6): 890 ng/mL
- Cmax ([1]; 29.6 mg m^−2, Cmax, 8-h infusion, 29.6 mg m^−2, n=3): 333 ng/mL
- Tmax ([1]; 29.6 mg m^−2, Tmax, median, 8-h infusion, 29.6 mg m^−2, n=3): 4 h
- AUC ([1]; 41.4 mg m^−2, AUC(l), 2-h infusion, 41.4 mg m^−2, n=6): 2880 ng·h/mL
- AUC ([1]; 41.4 mg m^−2, AUC(tf), 2-h infusion, 41.4 mg m^−2, n=6): 2860 ng·h/mL
- AUC ([1]; 41.4 mg m^−2, AUC(tf), 8-h infusion, 41.4 mg m^−2, n=2): 3300 ng·h/mL
- Cmax ([1]; 41.4 mg m^−2, Cmax, 2-h infusion, 41.4 mg m^−2, n=6): 1300 ng/mL
- Tmax ([1]; 41.4 mg m^−2, Tmax, median, 8-h infusion, 41.4 mg m^−2, n=1): 4 h
- AUC ([1]; 50 mg m^−2, AUC(l), 2-h infusion, 50 mg m^−2, n=15): 3940 ng·h/mL
- AUC ([1]; 50 mg m^−2, AUC(tf), 2-h infusion, 50 mg m^−2, n=15): 3910 ng·h/mL
- AUC ([1]; 50 mg m^−2, AUC(tf), 8-h infusion, 50 mg m^−2, n=2): 3670 ng·h/mL
- Cmax ([1]; 50 mg m^−2, Cmax, 2-h infusion, 50 mg m^−2, n=15): 1810 ng/mL
- Cmax ([1]; 50 mg m^−2, Cmax, 8-h infusion, 50 mg m^−2, n=2): 475 ng/mL
- Tmax ([1]; 50 mg m^−2, Tmax, median, 8-h infusion, 50 mg m^−2, n=2): 8 h
- AUC ([1]; 58 mg m^−2, AUC(l), 2-h infusion, 58 mg m^−2, n=4): 3370 ng·h/mL
- AUC ([1]; 58 mg m^−2, AUC(tf), 2-h infusion, 58 mg m^−2, n=4): 3360 ng·h/mL
- Cmax ([1]; 58 mg m^−2, Cmax, 2-h infusion, 58 mg m^−2, n=4): 1460 ng/mL
- Tmax ([1]; Tmax, after the initiation of the 2-h infusion, 35 patients in Part 1, across doses): 1 to 2 h
- Tmax ([1]; Tmax, after the start of the 8-h infusion, 16 patients): 4 to 8 h
- Tmax ([1]; Tmax, after the start of the 24-h infusion): 6 to 24 h
- subjects with grade ⩾3 neutropenia [2]: 10%
